From ChEMBL document CHEMBL1142886, “Substrate specificity analysis and inhibitor design of homoisocitrate dehydrogenase” (Bioorg Med Chem, 2007)
Calls of active or inactive are those of the source. The calls are words filed in the database; no cut-off is given here.

Legend:
Deinococcus radiodurans [1] = assay: Activity of Deinococcus radiodurans homoisocitrate dehydrogenase
Deinococcus radiodurans [2] = assay: Ratio of kcat/km of Deinococcus radiodurans homoisocitrate dehydrogenase
[3] = target: Homoisocitrate dehydrogenase, mitochondrial (Saccharomyces cerevisiae S288c) (UniProt P40495); assay: Activity of recombinant Saccharomyces cerevisiae homoisocitrate dehydrogenase expressed in Escherichia coli Rosetta cells above 10 mM
Deinococcus radiodurans [4] = assay: Activity of Deinococcus radiodurans homoisocitrate dehydrogenase above 10 mM

Sequence of Homoisocitrate dehydrogenase, mitochondrial (Saccharomyces cerevisiae S288c) (P40495 whole entry): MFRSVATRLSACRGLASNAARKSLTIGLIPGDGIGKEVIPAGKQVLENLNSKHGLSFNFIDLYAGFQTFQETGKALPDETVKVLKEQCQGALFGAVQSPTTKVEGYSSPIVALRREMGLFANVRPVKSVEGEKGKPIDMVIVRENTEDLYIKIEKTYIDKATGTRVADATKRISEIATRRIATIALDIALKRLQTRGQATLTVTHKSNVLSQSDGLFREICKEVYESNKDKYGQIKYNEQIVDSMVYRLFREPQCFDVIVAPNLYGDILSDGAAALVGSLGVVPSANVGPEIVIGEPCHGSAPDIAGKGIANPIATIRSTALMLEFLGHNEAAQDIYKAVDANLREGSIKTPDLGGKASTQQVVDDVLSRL

Row | SMILES | Km (Deinococcus radiodurans [1]) | kcat (Deinococcus radiodurans [1]) | kcat/Km (Deinococcus radiodurans [2]) | Activity [3] | Activity (Deinococcus radiodurans [4])
1 | O=C(O)CCCC[C@H](C(=O)O)[C@@H](O)C(=O)O | 140 µM | 40 s⁻¹ | 0.29 s⁻¹ µM⁻¹ | – | –
2 | C=C[C@H](C(=O)O)[C@@H](O)C(=O)O | 83 µM | 0.77 s⁻¹ | 0.0093 s⁻¹ µM⁻¹ | – | –
3 | C[C@H](C(=O)O)[C@@H](O)C(=O)O | 3600 µM | 19 s⁻¹ | 0.0053 s⁻¹ µM⁻¹ | – | –
4 | O=C(O)[C@H](O)[C@@H](C(=O)O)c1ccccc1 | – | – | – | inactive | inactive
5 | CC[C@H](C(=O)O)[C@@H](O)C(=O)O | 1000 µM | 43 s⁻¹ | 0.43 s⁻¹ µM⁻¹ | – | –
6 | CCC[C@H](C(=O)O)[C@@H](O)C(=O)O | 780 µM | 53 s⁻¹ | 0.068 s⁻¹ µM⁻¹ | – | –
7 | O=C(O)[C@@H](CCCO)[C@@H](O)C(=O)O | 510 µM | 29 s⁻¹ | 0.2 s⁻¹ µM⁻¹ | – | –
8 | C=CCCC[C@H](C(=O)O)[C@@H](O)C(=O)O | 2700 µM | 3 s⁻¹ | 0.0011 s⁻¹ µM⁻¹ | – | –
9 | O=C(O)[C@@H](CCO)[C@@H](O)C(=O)O | 590 µM | 25 s⁻¹ | 0.042 s⁻¹ µM⁻¹ | – | –
10 | NCCC[C@H](C(=O)O)[C@@H](O)C(=O)O | – | – | – | inactive | inactive
11 | CC(C)[C@H](C(=O)O)[C@@H](O)C(=O)O | – | – | – | inactive | –
12 | O=C(O)[C@@H](CCCCO)[C@@H](O)C(=O)O | 470 µM | 28 s⁻¹ | 0.06 s⁻¹ µM⁻¹ | – | –
13 | O=C(O)[C@@H](O)[C@@H](O)C(=O)O | – | – | – | inactive | inactive
14 | O=C(O)C[C@H](C(=O)O)[C@@H](O)C(=O)O | – | – | – | inactive | –
15 | O=C(O)CCC[C@H](C(=O)O)[C@@H](O)C(=O)O | 200 µM | 40 s⁻¹ | 0.2 s⁻¹ µM⁻¹ | – | –
16 | CCCCC[C@H](C(=O)O)[C@@H](O)C(=O)O | 3200 µM | 3.7 s⁻¹ | 0.0012 s⁻¹ µM⁻¹ | – | –
17 | C=CC[C@H](C(=O)O)[C@@H](O)C(=O)O | 2800 µM | 37 s⁻¹ | 0.013 s⁻¹ µM⁻¹ | – | –
18 | O=C(O)C[C@@H](O)C(=O)O | – | – | – | inactive | inactive
